Experimental data: patent publication US20240418707A1, “SELF-ORGANIZING NEURO-MUSCULAR JUNCTION CELL CULTURE MODEL” (Max-Delbrück-Centrum für Molekulare Medizin in der …, priority 2023, published 2024)
“Also recorded” adds a separate entry of the source.

What was measured:
Format in all cases: cell-based, human
[1] = tested on: SMA type I hiPSC derived soNMJ cultures; test: Muscle contraction analysis in SMA type I soNMJ model; settings: day 50, 10 μM, compared to H1 control
Procedure: (§1) Three different regions of the same coverslip were recorded for contraction analysis using a Leica SP8 confocal microscope. Each region was recorded twice for 3 minutes using brightfield with 20× zoom. To quantify the muscle contraction, each movie was analyzed individually using MuscleMotion (an open source ImageJ Macro). A reference frame was automatically detected by MuscleMotion to measure the contraction as a variation in pixel over time. The results were then plotted in Prism8 (GraphPad).

[2] = tested on: skeletal muscles in the soNMJ model; test: Contraction analysis of soNMJ model by live imaging; settings: soNMJ model day 75, control hPSC lines (H1, XM001); 10 μM curare
Procedure: as §1

NMJs of the soNMJ model = test: Optogenetic (Channelrhodopsin) stimulation of neurons with muscle contraction readout
Procedure: For specifically stimulating neurons in the neuromuscular culture, cells were incubated with 1E+9 VG/mL AAV8-hSyn-hChR2 (H134R)-GFP for 48 h at day 50. After 3-4 weeks, the expression of ChR2 (H134R)-GFP was assessed using a confocal microscope. Cultures were transferred to the electrophysiology setup described above, and continuously superfused with HEPES-buffered extracellular solution at room temperature. Bright-field images of 2048×2048 were acquired at 10 Hz using an sCMOS camera (Photometrics Prime BSI Express) with 50 ms exposure time. Every 50 s, ChR2-expressing neurons were optically stimulated with three 5-ms flashes of 470 nm light at 10 Hz, with 10 mW/mm2 intensity. For the analysis, the muscle contraction recorded in brightfield was quantified using MuscleMotion (described below), plotted in Prism8 (GraphPad) and correlated to the light […] pulses.
as §1

[3] = tested on: skeletal muscle fibers and neurons of the soNMJ model; test: Calcium imaging with Fluo8 in neuromuscular cultures; settings: day 75, Fluo8-AM, 10 μM curare
Procedure: Between day 50 and day 100, the cells were incubated at 37° C. with […] of the cell permeant calcium indicator Fluo-8 AM (Abcam). After 30 minutes of incubation, the cells were washed two times with culture medium (NB without phenol red) and left to recover for 15 min in the incubator prior to the start of any optical recording. During acquisition, the samples were kept at 37° C. with 5% CO2. Fluorescent time series images were acquired with a CSU-W1 spinning disk confocal microscope. The calcium transients were recorded for 2-3 minutes at 20 frames per second in three different conditions: without any treatment, with addition of […] Acetylcholine (Sigma Aldrich) and with addition of 10 μM Curare (Sigma Aldrich).
Analysis of the calcium activity was performed by measuring the variation of fluorescence intensity in each ROI with ImageJ. ROIs were detected manually, and neurons and muscle cells could be distinguished by morphology. The variation of fluorescence intensity for each individual ROI was then plotted in Prism 8 (GraphPad).

For curare, which “muscle contraction in SMA type I soNMJ” value [1] is on record?
The value was “did not respond; also recorded: failed to stop spontaneous muscle activity”.

What about the skeletal muscle contraction [2] of the same substance?
Its skeletal muscle contraction is “blocked the contraction of the skeletal muscles”.

What about the “muscle contraction upon optogenetic stimulation of ChR2-GFP+ neurons” value (NMJs of the soNMJ model; day 75, 470 nm light pulse, 10 μM curare) of the same substance?
The value was “inhibition of muscle contraction even upon optogenetic stimulation; also recorded: blocked the optogenetic stimulation of the skeletal muscles”.

And the “muscle contraction response to blue light stimulation after washout” value (NMJs of the soNMJ model; day 75, after washing out curare)?
The value was “restored by washing out curare”.

And the “calcium activity / firing of the neurons” value [3]?
The value was “without affecting the firing of the neurons”.

What about the “calcium activity in skeletal muscle fibers” value [3] of the same substance?
The value was “blocked the calcium activity in the skeletal muscle fibers; also recorded: abolished the calcium activity in the skeletal muscles”.
